One may read the Emax as the greatest response seen or fitted, relative to the assay's reference.

Molecules are shown by their SMILES. Bounds are passed on as bounds.

In one assay the target is T1, M1 muscarinic receptor (Homo sapiens, UniProt P11229).
T1 construct: expressed in transfected cells; host or cells: CHO (M1-CHO)
T1 sequence (P11229 1-460): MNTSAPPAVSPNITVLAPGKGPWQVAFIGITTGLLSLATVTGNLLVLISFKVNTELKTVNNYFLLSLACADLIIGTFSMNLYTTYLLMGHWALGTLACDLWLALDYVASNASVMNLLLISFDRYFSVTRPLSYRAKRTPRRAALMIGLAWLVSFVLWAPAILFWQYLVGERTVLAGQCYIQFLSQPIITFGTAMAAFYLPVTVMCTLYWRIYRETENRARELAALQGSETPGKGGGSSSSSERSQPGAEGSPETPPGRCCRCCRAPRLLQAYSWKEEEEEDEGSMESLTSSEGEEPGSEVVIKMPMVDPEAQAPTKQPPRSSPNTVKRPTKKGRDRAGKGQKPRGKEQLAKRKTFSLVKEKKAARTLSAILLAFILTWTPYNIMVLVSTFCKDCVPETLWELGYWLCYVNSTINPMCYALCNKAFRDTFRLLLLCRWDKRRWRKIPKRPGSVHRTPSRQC
Put plainly: Functional mobilization of intracellular calcium (FLIPR), M1-CHO cells. The format is cell-based. As to conditions: for Emax: 100% efficacy is the maximum response obtained with the Carbachol control; for M1 Activity: CHO cells expressing M1, calcium mobilization. In short, it runs like this:
(§1)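 Recombinant CHO cells loaded with Fluo-3 AM or Calcium 3 dye; fluorescence recorded 60 s on FLIPR in pH 7.4 buffer with 1 mM probenecid, 0.5% DMSO. Agonist mode: compound alone; antagonist mode: 15 min preincubation (or co-application) then carbachol at EC80. Efficacy relative to maximal carbachol response.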
On the technique in general: Calcium assays in cells follow changes in intracellular calcium, usually with a dye or a luminescent sensor.

The target in a further assay is T2, M4 muscarinic receptor (Homo sapiens, UniProt P08173).
T2 construct: expressed in transfected cells; host or cells: CHO (M4-CHO)
T2 sequence (P08173 1-479): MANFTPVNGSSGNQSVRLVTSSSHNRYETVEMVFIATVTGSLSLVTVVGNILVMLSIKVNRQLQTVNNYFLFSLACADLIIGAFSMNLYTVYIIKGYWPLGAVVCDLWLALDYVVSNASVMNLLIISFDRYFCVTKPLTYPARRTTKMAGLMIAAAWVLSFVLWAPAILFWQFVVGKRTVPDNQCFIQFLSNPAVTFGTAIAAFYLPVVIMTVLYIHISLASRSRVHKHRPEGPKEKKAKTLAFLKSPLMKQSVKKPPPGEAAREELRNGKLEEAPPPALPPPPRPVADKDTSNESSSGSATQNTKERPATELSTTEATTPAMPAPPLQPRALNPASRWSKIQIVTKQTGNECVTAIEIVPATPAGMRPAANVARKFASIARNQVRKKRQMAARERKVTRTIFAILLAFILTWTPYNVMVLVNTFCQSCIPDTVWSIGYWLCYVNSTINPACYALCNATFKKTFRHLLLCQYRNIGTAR
Put plainly: Functional mobilization of intracellular calcium (FLIPR), M4-CHO cells. The format is cell-based. Particulars: for Emax: 100% efficacy is the maximum response obtained with the Carbachol control; for M4 Activity: CHO cells expressing M4, calcium mobilization. In short, it runs like this: as §1

As for `CN(C)C(=O)N1CC2(CCN(C3CCN(c4nc5ccccc5o4)CC3)CC2)c2ccccc21` [compound 118], on M1 muscarinic receptor, the Emax was in the range of 25 to 100% and the “M1 Activity” value is listed as “++ (activity was measured to be from 2.0 μM to 10.0 μM)”. In addition, on M4 muscarinic receptor, the Emax was less than 25% and the “M4 Activity” value is “++ (activity was measured to be from 2.0 μM to 10.0 μM)”.

Take `COCCOC(=O)N1CCC(N2CCC3(CC2)CN(C(=O)N(C)C)c2ccccc23)CC1` [compound 43]: on M1 muscarinic receptor, the Emax lay in the range of 25 to 100% and the “M1 Activity” value was “+++ (activity was measured to be less than 2.0 μM)”. On M4 muscarinic receptor, the Emax was 25 to 100% and the “M4 Activity” value was “+++ (activity was measured to be less than 2.0 μM)”.

Turning to `COC(=O)N1CC[C@H](CN2CCC3(CC2)CN(C(=O)N(C)C)c2ccccc23)C1` [compound 59], at M1 muscarinic receptor, the Emax was 25 to 100% and the “M1 Activity” value is listed as “+++ (activity was measured to be less than 2.0 μM)”. Moreover, at M4 muscarinic receptor, the Emax fell in the range of 25 to 100% and the “M4 Activity” value is “+++ (activity was measured to be less than 2.0 μM)”.

Consider `CCc1nsc(N2CC[C@H](CN3CCC4(CC3)CN(C(=O)N(C)C)c3ccccc34)C2)n1` [compound 84], for which, at M1 muscarinic receptor, the maximal response (Emax) is 25 to 100% and the “M1 Activity” value is reported as “+++ (activity was measured to be less than 2.0 μM)”. Further, on M4 muscarinic receptor, the Emax is 25 to 100% and the “M4 Activity” value is listed as “+++ (activity was measured to be less than 2.0 μM)”.

In the case of `CN(C)C(=O)N1CC2(CCN(C3CC4CCC(C3)N4c3cnccn3)CC2)c2ccccc21` (stereo not shown) [Compound No. 103, N,N-dimethyl-1′-(8-(pyrazin-2-yl)-8-azabicyclo[3.2.1]octan-3-yl)spiro[indoline-3,4′-piperidine]-1-carboxamide], on M1 muscarinic receptor, the Emax was 25 to 100% and the “M1 Activity” value is listed as “+++ (activity was measured to be less than 2.0 μM)”. Also, at M4 muscarinic receptor, the Emax is more than 100% and the “M4 Activity” value is listed as “+++ (activity was measured to be less than 2.0 μM)”.

Consider `CC(C)OC(=O)N1C2CCC1CC(N1CCC3(CC1)CN(C(=O)N(C)C)c1ccccc13)C2` (stereo not shown) [compound 48], for which, on M1 muscarinic receptor, the Emax lay within 25 to 100% and the “M1 Activity” value is listed as “+++ (activity was measured to be less than 2.0 μM)”. Further, at M4 muscarinic receptor, the Emax was 25 to 100% and the “M4 Activity” value was “+++ (activity was measured to be less than 2.0 μM)”.

In the case of `CCc1nsc(N2C3CCC2CC(N2CCC4(CCN(C(=O)N(C)C)c5ccccc54)CC2)C3)n1` (stereo not shown) [Compound No. 32, 1-(8-(3-ethyl-1,2,4-thiadiazol-5-yl)-8-azabicyclo[3.2.1]octan-3-yl)-N,N-dimethyl-2′,3′-dihydro-1′ H-spiro[piperidine-4,4′-quinoline]-1′-carboxamide], on M1 muscarinic receptor, the maximal response (Emax) lay within 25 to 100% and the “M1 Activity” value is listed as “+++ (activity was measured to be less than 2.0 μM)”. At M4 muscarinic receptor, the Emax was 25 to 100% and the “M4 Activity” value is recorded as “+++ (activity was measured to be less than 2.0 μM)”.

Take `CN(C)C(=O)N1CC2(CCN(C3CCCN(C(=O)O[C@@H]4CCOC4)CC3)CC2)c2ccccc21` (stereo partly shown) [compound 73]: on M1 muscarinic receptor, the Emax was less than 25% and the “M1 Activity” value is “++ (activity was measured to be from 2.0 μM to 10.0 μM)”. For the same compound, on M4 muscarinic receptor, the Emax fell in the range of 25 to 100% and the “M4 Activity” value is reported as “+++ (activity was measured to be less than 2.0 μM)”.

Turning to `CCCOC(=O)N1CCCC(N2CCC3(CC2)CN(C(=O)N(C)C)c2ccccc23)CC1` (stereo not shown) [compound 69], at M1 muscarinic receptor, the Emax fell in the range of 25 to 100% and the “M1 Activity” value is on record as “+++ (activity was measured to be less than 2.0 μM)”. Moreover, at M4 muscarinic receptor, the Emax was in the range of 25 to 100% and the “M4 Activity” value was “+++ (activity was measured to be less than 2.0 μM)”.

Take `CC(C)OC(=O)N1CC[C@H](CN2CCC3(CC2)CN(C(=O)N(C)C)c2ccccc23)C1` [compound 62]: at M1 muscarinic receptor, the maximum response (Emax) was in the range of 25 to 100% and the “M1 Activity” value is “++ (activity was measured to be from 2.0 μM to 10.0 μM)”. Also, at M4 muscarinic receptor, the Emax was in the range of 25 to 100% and the “M4 Activity” value is listed as “+++ (activity was measured to be less than 2.0 μM)”.

For `COC(=O)N1C2CCC1CC(N1CCC3(CC1)CN(C(=O)N(C)C)c1ccccc13)C2` (stereo not shown) [compound 45], on M1 muscarinic receptor, the maximal effect (Emax) fell in the range of 25 to 100% and the “M1 Activity” value is listed as “++ (activity was measured to be from 2.0 μM to 10.0 μM)”. On M4 muscarinic receptor, the Emax was 25 to 100% and the “M4 Activity” value was “+++ (activity was measured to be less than 2.0 μM)”.

As for `Cc1nsc(N2CCC(N3CCC4(CC3)CN(C(=O)N(C)C)c3ccccc34)CC2)n1` [compound 53], at M1 muscarinic receptor, the Emax was 25 to 100% and the “M1 Activity” value is “+++ (activity was measured to be less than 2.0 μM)”. Further, on M4 muscarinic receptor, the Emax was more than 100% and the “M4 Activity” value was “+++ (activity was measured to be less than 2.0 μM)”.

Take `CCc1nsc(N2CCC(N3CCC4(CC3)CN(C(=O)N(C)C)c3ccccc34)CC2)n1` [compound 76]: on M1 muscarinic receptor, the maximal effect (Emax) was more than 100% and the “M1 Activity” value was “+++ (activity was measured to be less than 2.0 μM)”. For the same compound, on M4 muscarinic receptor, the Emax is more than 100% and the “M4 Activity” value was “+++ (activity was measured to be less than 2.0 μM)”.

Consider `CN(C)C(=O)N1CC2(CCN(C[C@@H]3CCN(C(=O)OC4CCOC4)C3)CC2)c2ccccc21` (stereo partly shown) [compound 110], for which, at M1 muscarinic receptor, the Emax was less than 25% and the “M1 Activity” value is given as “++ (activity was measured to be from 2.0 μM to 10.0 μM)”. Besides, on M4 muscarinic receptor, the maximal effect (Emax) was less than 25% and the “M4 Activity” value is given as “++ (activity was measured to be from 2.0 μM to 10.0 μM)”.

As to `CN(C)C(=O)N1CC2(CCN(C3CCN(c4nccs4)CC3)CC2)c2ccccc21` [compound 90], at M1 muscarinic receptor, the Emax lay in the range of 25 to 100% and the “M1 Activity” value was “++ (activity was measured to be from 2.0 μM to 10.0 μM)”. Further, at M4 muscarinic receptor, the maximum response (Emax) is 25 to 100% and the “M4 Activity” value was “++ (activity was measured to be from 2.0 μM to 10.0 μM)”.

Consider `CCC#CCOC(=O)N1CCC(N2CCC3(CCN(C(C)=O)c4ccccc43)CC2)CC1` [compound 14], for which, on M1 muscarinic receptor, the Emax was in the range of 25 to 100% and the “M1 Activity” value is reported as “+++ (activity was measured to be less than 2.0 μM)”. Moreover, on M4 muscarinic receptor, the Emax was in the range of 25 to 100% and the “M4 Activity” value is “+++ (activity was measured to be less than 2.0 μM)”.

As to `C#CCOC(=O)N1CCC(N2CCC3(CCN(C(=O)N(C)C)c4ccccc43)CC2)CC1` [compound 4], on M1 muscarinic receptor, the Emax was in the range of 25 to 100% and the “M1 Activity” value is “+++ (activity was measured to be less than 2.0 μM)”. In addition, on M4 muscarinic receptor, the Emax lay in the range of 25 to 100% and the “M4 Activity” value is listed as “+++ (activity was measured to be less than 2.0 μM)”.

In the case of `Cc1nsc(C2CCC(N3CCC4(CC3)CN(C(=O)N(C)C)c3ccccc34)CC2)n1` (stereo not shown) [compound 74], at M1 muscarinic receptor, the Emax was 25 to 100% and the “M1 Activity” value is recorded as “+++ (activity was measured to be less than 2.0 μM)”. Besides, on M4 muscarinic receptor, the Emax fell in the range of 25 to 100% and the “M4 Activity” value is listed as “+++ (activity was measured to be less than 2.0 μM)”.

For the compound `CN(C)C(=O)N1CC2(CCN(C3CCC(c4ncns4)CC3)CC2)c2ccccc21` (stereo not shown) [compound 112], at M1 muscarinic receptor, the maximal effect (Emax) is less than 25% and the “M1 Activity” value is “++ (activity was measured to be from 2.0 μM to 10.0 μM)”. Besides, at M4 muscarinic receptor, the Emax was less than 25% and the “M4 Activity” value is reported as “+ (activity was measured to be greater than 10.0 μM)”.

Take `CCOC(=O)N1C2CCC1CC(N1CCC3(CCN(C(C)=O)c4ccccc43)CC1)C2` (stereo not shown) [compound 1]: on M1 muscarinic receptor, the Emax is 25 to 100% and the “M1 Activity” value is given as “+++ (activity was measured to be less than 2.0 μM)”. For the same compound, on M4 muscarinic receptor, the Emax was 25 to 100% and the “M4 Activity” value was “+++ (activity was measured to be less than 2.0 μM)”.

For `CN(C)C(=O)N1CC2(CCN(C[C@H]3CCN(C(=O)OC4CCOC4)C3)CC2)c2ccccc21` (stereo partly shown) [compound 111], on M1 muscarinic receptor, the Emax is less than 25% and the “M1 Activity” value is “++ (activity was measured to be from 2.0 μM to 10.0 μM)”. In addition, on M4 muscarinic receptor, the Emax was less than 25% and the “M4 Activity” value was “++ (activity was measured to be from 2.0 μM to 10.0 μM)”.

`CN(C)C(=O)N1CC2(CCN(C[C@@H]3CCN(C(=O)OCC(F)F)C3)CC2)c2ccccc21` [compound 57]: on M1 muscarinic receptor, the Emax is 25 to 100% and the “M1 Activity” value is “+++ (activity was measured to be less than 2.0 μM)”. Moreover, on M4 muscarinic receptor, the Emax lay within 25 to 100% and the “M4 Activity” value is on record as “+++ (activity was measured to be less than 2.0 μM)”.
